Results reported in article PMC11971462, “Generation and validation of a novel multitarget small molecule in glioblastoma” (Cell Death & Disease, 2025).

System: GNS166 cells
Test: Label-free proteomics differential expression
Type: cell-based, human
Procedure: Proteomic studies were performed by the Proteomics Facility of the CIC bioGUNE by label-free relative quantification on nLC MS/MS. […] In both approaches, the top 20 enriched terms were plotted and the pathways were clustered using divisive hierarchical clustering based on pairwise Jaccard distances.

C#CCN(Cc1cc2cc(OCCCN3CCCCC3)ccc2n1S(=O)(=O)c1ccccc1)C(=O)CCCCCCC(=O)NO [DDI]
LogFC CAF1B_HUMAN (protein Q13112 GN=CHAF1B): -1.512 | LogFC STK3_HUMAN (protein Q13188 GN=STK3): 0.6701 | Direction MD2L1_HUMAN (protein Q13257): Down | LogFC MD2L1_HUMAN (protein Q13257): -1.113 | LogFC PABP4_HUMAN (protein Q13310 GN=PABPC4): -0.5988 | Direction MTA1_HUMAN (protein Q13330): Down | LogFC MTA1_HUMAN (protein Q13330): -1.705 | Direction 2A5G_HUMAN (protein Q13362): Down | LogFC 2A5G_HUMAN (protein Q13362): -1.224 | Direction SQSTM_HUMAN (protein Q13501): Down | LogFC SQSTM_HUMAN (protein Q13501): -1.0987 | LogFC TBB3_HUMAN (protein Q13509 GN=TUBB3): 0.7942 | LogFC PKD2_HUMAN (protein Q13563 GN=PKD2): -0.7081 | LogFC TRA2A_HUMAN (protein Q13595 GN=TRA2A): -0.7095 | LogFC TBB2A_HUMAN (protein Q13885 GN=TUBB2A): 0.9316 | LogFC IDI1_HUMAN (protein Q13907 GN=IDI1): 0.7277 | Direction CKAP5_HUMAN (protein Q14008): Down | LogFC CKAP5_HUMAN (protein Q14008): -0.6393 | Direction PDE1C_HUMAN (protein Q14123): Down | LogFC PDE1C_HUMAN (protein Q14123): -1.117 | Direction EIF3A_HUMAN (protein Q14152): Down | LogFC EIF3A_HUMAN (protein Q14152): -0.389 | Direction UBP2L_HUMAN (protein Q14157): Down | LogFC UBP2L_HUMAN (protein Q14157): -0.8648 | LogFC TTL12_HUMAN (protein Q14166 GN=TTLL12): 0.5228 | Direction DOCK1_HUMAN (protein Q14185): Down | LogFC DOCK1_HUMAN (protein Q14185): -1.615 | Direction DYHC1_HUMAN (protein Q14204): Down | LogFC DYHC1_HUMAN (protein Q14204): -0.3165 | Direction NUCG_HUMAN (protein Q14249): Down | LogFC NUCG_HUMAN (protein Q14249): -2.036 | Direction FLOT2_HUMAN (protein Q14254): Down | LogFC FLOT2_HUMAN (protein Q14254): -1.186 | Direction GAS6_HUMAN (protein Q14393): Down | LogFC GAS6_HUMAN (protein Q14393): -2.504 | LogFC PLSI_HUMAN (protein Q14651 GN=PLS1): 1.442 | Direction SMC1A_HUMAN (protein Q14683): Down | LogFC SMC1A_HUMAN (protein Q14683): -0.5055 | LogFC LPIN1_HUMAN (protein Q14693 GN=LPIN1): 0.9551 | Direction UBP10_HUMAN (protein Q14694): Down | LogFC UBP10_HUMAN (protein Q14694): -0.9311 | Direction KIF22_HUMAN (protein Q14807): Down | LogFC KIF22_HUMAN (protein Q14807): -3.469 | LogFC CHD4_HUMAN (protein Q14839 GN=CHD4): -0.985 | Direction IMB1_HUMAN (protein Q14974): Down | LogFC IMB1_HUMAN (protein Q14974): -0.6185 | Direction CND2_HUMAN (protein Q15003): Down | LogFC CND2_HUMAN (protein Q15003): -1.758 | LogFC SART3_HUMAN (protein Q15020 GN=SART3): -0.5999 | Direction CND1_HUMAN (protein Q15021): Down | LogFC CND1_HUMAN (protein Q15021): -2.0518 | Direction SNX17_HUMAN (protein Q15036): Down | LogFC SNX17_HUMAN (protein Q15036): -1.453 | Direction SYK_HUMAN (protein Q15046): Down | LogFC SYK_HUMAN (protein Q15046): -0.4877 | Direction OXA1L_HUMAN (protein Q15070): Down | LogFC OXA1L_HUMAN (protein Q15070): -1.062 | LogFC PMVK_HUMAN (protein Q15126 GN=PMVK): 1.337 | Direction PLEC_HUMAN (protein Q15149): Down | LogFC PLEC_HUMAN (protein Q15149): -0.7 | LogFC NECT1_HUMAN (protein Q15223 GN=NECTIN1): -1.589 | Direction LRC41_HUMAN (protein Q15345): Down | LogFC LRC41_HUMAN (protein Q15345): -1.0607 | LogFC KS6A1_HUMAN (protein Q15418 GN=RPS6KA1): 1.988 | LogFC PP1R7_HUMAN (protein Q15435 GN=PPP1R7): 0.5315 | LogFC MARE2_HUMAN (protein Q15555 GN=MAPRE2): 3.286 | LogFC CIP4_HUMAN (protein Q15642 GN=TRIP10): 1.0065 | Direction PCH2_HUMAN (protein Q15645): Down | LogFC PCH2_HUMAN (protein Q15645): -0.9654 | Direction MSMO1_HUMAN (protein Q15800): Down | LogFC MSMO1_HUMAN (protein Q15800): -0.8085 | LogFC STXB2_HUMAN (protein Q15833 GN=STXBP2): 0.5821 | Direction PKN2_HUMAN (protein Q16513): Down | LogFC PKN2_HUMAN (protein Q16513): -0.7145 | Direction DDB1_HUMAN (protein Q16531): Down | LogFC DDB1_HUMAN (protein Q16531): -0.3715 | LogFC DPYL2_HUMAN (protein Q16555 GN=DPYSL2): 0.9356 | LogFC UBE2S_HUMAN (protein Q16763 GN=UBE2S): -1.229 | LogFC CP51A_HUMAN (protein Q16850 GN=CYP51A1): -0.6587 | LogFC CGT_HUMAN (protein Q16880 GN=UGT8): 1.956 | LogFC TRXR1_HUMAN (protein Q16881 GN=TXNRD1): 0.6582 | Direction NICA_HUMAN (protein Q92542): Down | LogFC NICA_HUMAN (protein Q92542): -1.398 | Direction TM9S4_HUMAN (protein Q92544): Down | LogFC TM9S4_HUMAN (protein Q92544): -1.2661 | LogFC TBCD5_HUMAN (protein Q92609 GN=TBC1D5): -0.4214 | LogFC NU205_HUMAN (protein Q92621 GN=NUP205): -0.751 | Direction PXDN_HUMAN (protein Q92626): Down | LogFC PXDN_HUMAN (protein Q92626): -0.8349 | Direction AP2C_HUMAN (protein Q92754): Down | LogFC AP2C_HUMAN (protein Q92754): -1.895 | Direction SYMPK_HUMAN (protein Q92797): Down | LogFC SYMPK_HUMAN (protein Q92797): -0.8433 | LogFC KIFA3_HUMAN (protein Q92845 GN=KIFAP3): 1.431 | Direction ARHG1_HUMAN (protein Q92888): Down | LogFC ARHG1_HUMAN (protein Q92888): -0.7775 | Direction ARHG2_HUMAN (protein Q92974): Down | LogFC ARHG2_HUMAN (protein Q92974): -0.6456 | LogFC USP9X_HUMAN (protein Q93008 GN=USP9X): 0.7813 | Direction CUL5_HUMAN (protein Q93034): Down | LogFC CUL5_HUMAN (protein Q93034): -0.617 | LogFC VPP1_HUMAN (protein Q93050 GN=ATP6V0A1): 1.447 | Direction MED12_HUMAN (protein Q93074): Down | LogFC MED12_HUMAN (protein Q93074): -2.0643 | Direction KPBB_HUMAN (protein Q93100): Down | LogFC KPBB_HUMAN (protein Q93100): -2.118 | Direction SEC62_HUMAN (protein Q99442): Down | LogFC SEC62_HUMAN (protein Q99442): -2.138 | LogFC VAT1_HUMAN (protein Q99536 GN=VAT1): 1.276 | Direction NUP88_HUMAN (protein Q99567): Down | LogFC NUP88_HUMAN (protein Q99567): -0.8011 | LogFC NEUS_HUMAN (protein Q99574 GN=SERPINI1): 4.964 | LogFC DNJC7_HUMAN (protein Q99615 GN=DNAJC7): -0.8769 | Direction MGST2_HUMAN (protein Q99735): Down | LogFC MGST2_HUMAN (protein Q99735): -1.016
